What was measured:
[1] = test system: test culture; assay type: cell-based; details: 37° C., 16 hours
[2] = test system: E. coli K12; test: Bacterial growth inhibition with PNA 249 (without peptide, FtsZ) and peptide 250, 100% Mueller-Hinton broth (Table 18); assay type: cell-based, Escherichia coli; details: for Growth inhibition effect: low concentration end

Row | Substance | Growth inhibition [1] | Growth inhibition effect [2] | Peptide concentration at which the peptide alone may show growth inhibition effect [2]
1 | H-KFFKFFKFFK-ado-TGA CTA GAT GAG-NH2 [PNA 136] | No growth inhibition was detected | – | –
2 | H-ado-TTC AAA CAT AGT-NH2 [PNA 249] | – | neither 249 nor 250 alone nor 249 and 250 together show any useful effect | –
3 | H-CG-KLAKALKKLL-NH2 (H-CGKLAKALKKLL-NH2) [PNA 250, peptide alone, also used for PNA 174] | – | neither 249 nor 250 alone nor 249 and 250 together show any useful effect | above 2500 nM

Reference: US20030199431A1, “Modified peptide nucleic acid (PNA) molecules” (priority 1999, published 2003)
